{"source": "patent US8512941B2", "about": "“Biological material and methods and solutions for preservation thereof” (Core Dynamics Limited, priority 2004, dated 2013)", "format_in_all_cases": "cell-based", "key": {"[1]": {"system": "Mononuclear cells (MNC) derived from umbilical cord blood (UCB)", "experiment": "CD3 expression by FACS of lyophilized, rehydrated MNC", "details": "0.1M Trehalose in PBS", "protocol": "(§1) C. In this example a freezing solution composed of 0.1M Trehalose and either 0.47 mg/ml EGCG (×2.5) or 1.89 mg/ml EGCG (×10) in PBS was used. Samples volume was 2.5 ml and samples were frozen as described above and then lyophilized. After being in the lyophilizer for 72 h, the samples were taken out and rehydrated with 2.4 ml of DDW at 37° C. After rehydration samples were assayed for CD3 using FACS (fluorescent-activated cell sorter) in accordance with the method described in Huiling et al. The Journal of Immunology 2003, 171: 4824-4829, with minor modifications."}, "[2]": {"system": "Red blood cells (RBC)", "experiment": "Freeze-dried and rehydrated RBC: cell number, MCV, hemolysis", "details": "for % Hemolysis in Lyo cells / MCV, Lyo / number of Cells, Lyo: lyophilized and rehydrated", "protocol": "Freezing was performed as described in Example 5A. After freezing, samples were transferred to a commercial lyophilizer (Labconco, USA). Samples were lyophilized for 72 hours, after which rehydration was performed by adding 2.4 ml double distilled water at 37° C. back to the samples. After rehydration samples were counted and mean cell volume (MCV) was measured using the Pentra 60 (ABX, France) automatic cell counter. Free hemoglobin levels were measured as described above and the hemolysis percentage was calculated using Formula I."}, "[3]": {"system": "Mononuclear cells (MNC) derived from umbilical cord blood (UCB)", "experiment": "MNC viability by membrane integrity (SYBR14/PI) after freeze thawing or freeze drying", "details": "for Mambrane integrity (%): 0.1M Trehalose in PBS", "protocol": "Blood was separated on ficoll-paque gradient for 30 minutes at 1000 g. Afterwards the mononuclear layer was drawn out and washed twice in PBS for 10 minutes at 200 g. To each pellet one of the following freezing solutions was added:\n2.5 ml of cell suspension were put in a 16 mm diameter glass test tube (Manara, Israel) and frozen using the MTG freezing apparatus (IMT, Israel). The temperature gradients were 1.5° C./mm and 0.428° C./mm, velocity was 0.2 mm/sec resulting in a cooling rate of 18° C./min and 5.1° C./min respectively. The first cooling rate was applied until the seeding temperature was reached. The samples were rotated at 56 rounds per minute (RPM).\nAfter freezing samples were plunged into liquid nitrogen (LN), and then samples were either thawed at 37° C. in a water bath or put in a commercial lyophilizer (Labconco, USA) with a condenser temperature of −80° C. After drying the cells were rehydrated with DDW at 37° C.\nCells were counted using the PENTRA 60 cell counter, as described above. viability assessments were performed by evaluating the cells' membrane integrity using SYBR14 plus Propidium Iodide (PI) (Molecular Probes, USA) live/dead fluorescent staining. These stains are nucleic acid stains, SYBR14 is a membrane permeable molecule and PI can enter the cell only if the membrane is damaged.\nas §1\nMembrane integrity of the samples was evaluated before and after rehydration using SYBR 14 and PI (Molecular Probes, USA)."}, "[4]": {"system": "Red blood cells (RBC)", "experiment": "Post-thaw RBC hemolysis (cyanmethemoglobin assay, Drabkin's solution, Formula I)", "details": "4.12 mM EGCG in 20% (w/v) Dextran 40, 0.8% NaCl; 1890° C./min; 24 hours at −80° C.", "protocol": "In the following Examples, unless specifically said otherwise, free hemoglobin levels detection was done by using the cyanmethemoglubin assay using Drabkin's solution (Sigma, USA) and reading the absorbance at 540 nm using an ELISA reader (Bio Tek Instruments, USA). Hemoglobin (Hb) concentration was measured in the supernatant and in the pellet, and the hemolysis percentage was calculated using Formula I: […]\nFreezing solution was mixed in a 1:1 ration with packed red blood cells.\nRBC were frozen at a volume of 2.5 ml in a 16 mm diameter test tube (Manara, Israel) using the MTG freezing device. […] The test tubes were rotated during freezing at 60 rounds per minute. After freezing, samples were stored for 24 hours in a −80° C. freezer (Forma, USA). Thawing was performed by plunging the samples in a water bath at 37° C. for a period of time under a minute, when the samples visually appears to have been completely thawed.\nSamples were rotated at 60 RPM."}}, "note": "Where “and” joins values, the source holds several entries; their conditions need not be identical. Equal entries are not always repeated.", "data": [{"smiles": "O=C(O[C@@H]1Cc2c(O)cc(O)cc2O[C@@H]1c1cc(O)c(O)c(O)c1)c1cc(O)c(O)c(O)c1", "note": "[EGCG, Epigallocatechin gallate]", "values": [{"measurement": "CD3 (%)", "setting": "[1]; Lyophilized with 0.47 mg/ml EGCG", "value": 80, "unit": "%"}, {"measurement": "CD3 (%)", "setting": "[1]; Lyophilized with 1.89 mg/ml EGCG", "value": "81% and 83% and 82% and 78%"}, {"measurement": "MCV, % of lyo from fresh", "setting": "[2]; 1.03 mM EGCG", "value": 85.23, "unit": "%"}, {"measurement": "number of Cells, % of lyo cells from fresh", "setting": "[2]; 1.03 mM EGCG", "value": 67.22, "unit": "%"}, {"measurement": "number of Cells, Fresh", "setting": "[2]; 1.03 mM EGCG in 20% Dextran 40, 0.8% NaCl", "value": "4.21 10^9/ml"}, {"measurement": "MCV, Fresh", "setting": "[2]; 1.03 mM EGCG", "value": 88, "unit": "μm^3"}, {"measurement": "% Hemolysis in Lyo cells", "setting": "[2]; 1.03 mM EGCG", "value": 56.18, "unit": "%"}, {"measurement": "MCV, Lyo", "setting": "[2]; 1.03 mM EGCG", "value": 75, "unit": "μm^3"}, {"measurement": "number of Cells, Lyo", "setting": "[2]; 1.03 mM EGCG", "value": "2.83 10^9/ml"}, {"measurement": "MCV, % of lyo from fresh", "setting": "[2]; 4.12 mM EGCG", "value": 96.59, "unit": "%"}, {"measurement": "number of Cells, % of lyo cells from fresh", "setting": "[2]; 4.12 mM EGCG", "value": 63.32, "unit": "%"}, {"measurement": "number of Cells, Fresh", "setting": "[2]; 4.12 mM EGCG in 20% Dextran 40, 0.8% NaCl", "value": "4.58 10^9/ml"}, {"measurement": "MCV, Fresh", "setting": "[2]; 4.12 mM EGCG", "value": 88, "unit": "μm^3"}, {"measurement": "% Hemolysis in Lyo cells", "setting": "[2]; 4.12 mM EGCG", "value": 51.8, "unit": "%"}, {"measurement": "MCV, Lyo", "setting": "[2]; 4.12 mM EGCG", "value": 85, "unit": "μm^3"}, {"measurement": "number of Cells, Lyo", "setting": "[2]; 4.12 mM EGCG", "value": "2.9 10^9/ml"}, {"measurement": "viability, effect of EGCG concentration", "setting": "[3]; FIG. 7, 0.412, 1.03, 2.06, 4.12 mM EGCG with 0.1M trehalose in PBS, after freeze thawing and after freeze drying", "value": "viability increased with EGCG concentration"}, {"measurement": "Mambrane integrity (%)", "setting": "[3]; Fresh with 0.47 mg/ml EGCG", "value": "97.36 ± 2.2", "unit": "%"}, {"measurement": "Mambrane integrity (%)", "setting": "[3]; Fresh with 1.89 mg/ml EGCG", "value": "90.01 ± 4.3", "unit": "%"}, {"measurement": "Mambrane integrity (%)", "setting": "[3]; Lyophilized with 0.47 mg/ml EGCG, rehydrated", "value": "55.1 ± 8.5% and 59.8 ± 1.4%"}, {"measurement": "Mambrane integrity (%)", "setting": "[3]; Lyophilized with 1.89 mg/ml EGCG, rehydrated", "value": "79.31 ± 8.8% and 83.62 ± 5.7% and 88.4 ± 3.2% and 88.03 ± 5.6%"}, {"measurement": "Post thaw hemolysis", "setting": "[4]", "value": 3.5, "unit": "%"}]}]}
